Data on one compound can be found in patent US5308608A, “Photosensitizing Diels-Alder porphyrin derivatives” (University of British Columbia, priority 1992, dated 1994).

The series has as its system MI-S. Briefly: In vitro photosensitizing cytotoxicity (LD50) on cell line MI-S, 700-820 nm light for 30 minutes. Format: cell-based. As to conditions: eosin-Y exclusion or tritium-labeled thymidine uptake.

Experimental: Various invention compounds were assayed in vitro using either cell line P815 or MI-S as model systems to test their photosensitizing activity. In the standard protocol, various concentrations of test compounds were added to washed suspensions of cells from cultures of the target cells and the mixtures were then irradiated using 700-820 nm light for 30 minutes. The results were assayed by determining cytotoxicity using direct counting using eosin-Y exclusion, a standard procedure for differentiating living from dead cells.
In other determinations conducted as above, the cells recovered from light exposure were assayed for viability by incubating them for 18 hours in 10 mCi/ml tritium-labeled thymidine according to the standard procedure whereby thymidine incorporation is equated with viability. The cells were harvested and radioactivity uptake was measured by a scintillation counter.

On to `CCc1c(C)c2cc3nc(cc4[nH]c(cc5nc(cc1[nH]2)C1(C)C5=CCC2C(=O)N(c5ccccc5)C(=O)C21)c(C)c4CC)C1(C)C3=CCC2C(=O)N(c3ccccc3)C(=O)C21` (stereo not shown) [Compound 12], for which the LD50 is recorded as 100 ng.
